pEC50: −log10 of the molar value.
System: HBV
Assay: HepAD38 anti-HBV assay: reduction of viral product accumulation (virion DNA qPCR, HBsAg/HBeAg ELISA)
Format: cell-based
Conditions: Hepatitis B virus, 120 h; HepAD38 cells; concentration reducing viral product accumulation by 50% relative to no drug controls; harvest five days after compound addition; read-out: HepAD38 EC50
Experimental: Methods: HepAD38 cells are maintained as previously reported (Ladner et al, Antimicrob. Agents Chemother. 1997, […], 1715). Briefly, cells are passaged upon attaining confluency in DMEM/F12 media in the presence of 10% FBS, Penn/Strep, 250 μg/mL G418, and 1 μg/ml tetracycline. Novel compounds are screened by first washing cells three times with PBS to remove tetracycline, and plating in 96 well plates at 35,000 cells/well. Compounds dissolved in DMSO are then diluted 1:200 into wells containing cells. Five days after compound addition, material is harvested for analysis. For an extended 8 day analysis, cells are plated and treated as described above, but media and compound are refreshed on d2 and d5 post initial treatment.
On harvest day, virion DNA is obtained by lysing with Sidestep Lysis and Stabilization Buffer and then quantified via quantitative real time PCR. Commercially available ELISA kits are used to quantitate the viral proteins HBsAg (Alpco) or HbeAg (US Biological) by following the manufacturer's recommended protocol after diluting samples to match the linear range of their respective assays. Irrespective of readout, compound concentrations that reduce viral product accumulation in the cell lysates or supernatants by 50% relative to no drug controls (EC50) are reported; EC50 ranges are as follows: A<0.1 μM; B 0.1-0.4 μM; C>0.4 μM.

| Compound | pEC50 |
| --- | --- |
| O=C(Nc1ccccn1)OCCCS(=O)(=O)N[C@H]1CC2=C(c3ccn(C(F)F)n3)[C@H](c3ccc(F)cc3Cl)N=C(c3nccs3)N2C1 [Example 327] | > 7.00 |
| O=S(=O)(N[C@H]1CC2=C(c3ccn(C(F)F)n3)[C@H](c3ccc(F)cc3Cl)N=C(c3nccs3)N2C1)c1cccc(C(F)(F)F)c1 [Example 399] | 6.40 to 7.00 |
| O=S(=O)(Nc1ccc(-c2ccccn2)cc1)N[C@H]1CC2=C(c3ccn(C(F)F)n3)[C@H](c3ccc(F)cc3Cl)N=C(c3nccs3)N2C1 [Example 346] | > 7.00 |
| O=C(Nc1ccc(F)c(F)c1)c1cccc(S(=O)(=O)N[C@H]2CC3=C(c4ccn(C(F)F)n4)[C@H](c4ccc(F)cc4Cl)N=C(c4nccs4)N3C2)c1 [Example 422] | 6.40 to 7.00 |
| CC(C)C[C@@H](NS(=O)(=O)N[C@H]1CC2=C(c3ccn(C(F)F)n3)[C@H](c3ccc(F)cc3Cl)N=C(c3nccs3)N2C1)c1ccccn1 [Example 360] | 6.40 to 7.00 |
| O=C(N[C@H]1CC2=C(c3ccn(C(F)F)n3)[C@H](c3ccc(F)cc3Cl)N=C(c3nccs3)N2C1)c1ncccn1 [Example 232] | > 7.00 |
| OC(c1c[nH]nn1)C1(F)CC2=C(c3ccn(C(F)F)n3)[C@H](c3ccc(F)cc3Cl)N=C(c3nccs3)N2C1 (stereo partly shown) [Example 184] | < 6.40 |
| O=C(O)c1ccc(CS(=O)(=O)N[C@H]2CC3=C(c4ccn(C(F)F)n4)[C@H](c4ccc(F)cc4Cl)N=C(c4nccs4)N3C2)cc1 [Example 36] | > 7.00 |
| O=S(=O)(CCN1CCCCC1)N[C@H]1CC2=C(c3ccn(C(F)F)n3)[C@H](c3ccc(F)cc3Cl)N=C(c3nccs3)N2C1 [Example 55] | 6.40 to 7.00 |
| O=C(N[C@H]1CC2=C(c3ccn(C(F)F)n3)[C@H](c3ccc(F)cc3Cl)N=C(c3nccs3)N2C1)N1CCCCC1 [Example 206] | 6.40 to 7.00 |
| OC/C=C/[C@@]1(F)CC2=C(c3ccn(C(F)F)c3)[C@H](c3ccc(F)cc3Cl)N=C(c3nccs3)N2C1 [Example 175] | 6.40 to 7.00 |
| O=S(=O)(NCc1cnccn1)N[C@H]1CC2=C(c3ccn(C(F)F)n3)[C@H](c3ccc(F)cc3Cl)N=C(c3nccs3)N2C1 [Example 317] | > 7.00 |
| O=S(=O)(N[C@H]1CC2=C(c3ccn(C(F)F)n3)[C@H](c3ccc(F)cc3Cl)N=C(c3nccs3)N2C1)C1(C[C@H](O)CO)CC1 [Example 425] | > 7.00 |
| CS(=O)(=O)CCCS(=O)(=O)N[C@H]1CC2=C(c3ccn(C(F)F)n3)[C@H](c3ccc(F)cc3Cl)N=C(c3nccs3)N2C1 [Example 329] | > 7.00 |
| CC[C@H](NS(=O)(=O)N[C@H]1CC2=C(c3ccn(C(F)F)n3)[C@H](c3ccc(F)cc3Cl)N=C(c3nccs3)N2C1)c1ccccn1 [Example 351] | > 7.00 |
| O=S(=O)(N[C@H]1CC2=C(c3ccn(C(F)F)n3)[C@H](c3ccc(F)cc3Cl)N=C(c3nccs3)N2C1)c1ccc2ncsc2c1 [Example 398] | > 7.00 |
| O=S(=O)(N[C@H]1CC2=C(c3ccn(C(F)F)n3)[C@H](c3ccc(F)cc3Cl)N=C(c3nccs3)N2C1)N1CCCC1c1cccnc1 (stereo partly shown) [Example 283] | 6.40 to 7.00 |
| CC(C)CCS(=O)(=O)N[C@H]1CC2=C(c3ccn(C(F)F)n3)[C@H](c3ccc(F)cc3Cl)N=C(c3nccs3)N2C1 [Example 71] | 6.40 to 7.00 |
| COC(=O)CS(=O)(=O)N[C@H]1CC2=C(c3ccn(C(F)F)n3)[C@H](c3ccc(F)cc3Cl)N=C(c3nccs3)N2C1 [Example 12] | 6.40 to 7.00 |
| COC(=O)C1CCCN(CCS(=O)(=O)N[C@H]2CC3=C(c4ccn(C(F)F)n4)[C@H](c4ccc(F)cc4Cl)N=C(c4nccs4)N3C2)C1 (stereo partly shown) [Example 66] | < 6.40 |
| COCCOC[C@@]1(O)CC2=C(c3ccn(C(F)F)n3)[C@H](c3ccc(F)cc3Cl)N=C(c3nccs3)N2C1 [Example 112] | < 6.40 |
| O=C(N[C@H]1CC2=C(c3ccn(C(F)F)n3)[C@H](c3ccc(F)cc3Cl)N=C(c3nccs3)N2C1)c1ncc(-c2ccccn2)s1 [Example 263] | 6.40 to 7.00 |

| Compound | pEC50 |
| --- | --- |
| CCOC(=O)CN([C@H]1CC2=C(c3ccn(C(F)F)n3)[C@H](c3ccc(F)cc3Cl)N=C(c3nccs3)N2C1)S(=O)(=O)c1cnn(CC(=O)OCC)c1 [Example 39] | < 6.40 |
| CN(C)CCS(=O)(=O)N[C@H]1CC2=C(c3ccn(C(F)F)n3)[C@H](c3ccc(F)cc3Cl)N=C(c3nccs3)N2C1 [Example 53] | > 7.00 |
| O=S(=O)(NCC1(O)CC1)N[C@H]1CC2=C(c3ccn(C(F)F)n3)[C@H](c3ccc(F)cc3Cl)N=C(c3nccs3)N2C1 [Example 158] | 6.40 to 7.00 |
| COC(=O)CCS(=O)(=O)N[C@H]1CC2=C(c3ccn(C(F)F)n3)[C@H](c3ccc(F)cc3Cl)N=C(c3nccs3)N2C1 [Example 8] | 6.40 to 7.00 |
| O=C1NCCN1[C@H]1CC2=C(c3ccn(C(F)F)n3)[C@H](c3ccc(F)cc3Cl)N=C(c3nccs3)N2C1 [Example 40] | 6.40 to 7.00 |
| COC(=O)C1CCCN1CCS(=O)(=O)N[C@H]1CC2=C(c3ccn(C(F)F)n3)[C@H](c3ccc(F)cc3Cl)N=C(c3nccs3)N2C1 (stereo partly shown) [Example 60] | < 6.40 |
| CCOC(=O)N[C@H]1CC2=C(c3ccn(C(F)F)n3)[C@H](c3ccc(F)cc3Cl)N=C(c3nccs3)N2C1 [Example 201] | > 7.00 |
| CNC(=O)N[C@H]1CC2=C(c3ccn(C(F)F)n3)[C@H](c3ccc(F)cc3Cl)N=C(c3nccs3)N2C1 [Example 199] | 6.40 to 7.00 |
| O=S(=O)(N[C@H]1CC2=C(c3ccn(C(F)F)n3)[C@H](c3ccc(F)cc3Cl)N=C(c3nccs3)N2C1)N1CCCC1c1ccccn1 (stereo partly shown) [Example 288] | > 7.00 |
| O=C(N[C@H]1CC2=C(c3ccn(C(F)F)n3)[C@H](c3ccc(F)cc3Cl)N=C(c3nccs3)N2C1)c1cccc(C2CC2)n1 [Example 248] | < 6.40 |
| COC(=O)c1ccc(Cl)c(S(=O)(=O)N[C@H]2CC3=C(c4ccn(C(F)F)n4)[C@H](c4ccc(F)cc4Cl)N=C(c4nccs4)N3C2)c1 [Example 24] | 6.40 to 7.00 |
| O=C(O)C1CCCN(CCS(=O)(=O)N[C@H]2CC3=C(c4ccn(C(F)F)n4)[C@H](c4ccc(F)cc4Cl)N=C(c4nccs4)N3C2)C1 (stereo partly shown) [Example 68] | < 6.40 |
| O=C(O)c1ccccc1S(=O)(=O)N[C@H]1CC2=C(c3ccn(C(F)F)n3)[C@H](c3ccc(F)cc3Cl)N=C(c3nccs3)N2C1 [Example 7] | < 6.40 |
| C=CCNC[C@]1(N)CC2=C(c3ccn(C(F)F)n3)[C@H](c3ccc(F)cc3Cl)N=C(c3nccs3)N2C1 [Example 147] | < 6.40 |
| O=C(O)CC1CCN(CCS(=O)(=O)N[C@H]2CC3=C(c4ccn(C(F)F)n4)[C@H](c4ccc(F)cc4Cl)N=C(c4nccs4)N3C2)CC1 [Example 63] | < 6.40 |
| O=S(=O)(CCN1CCC(O)CC1)N[C@H]1CC2=C(c3ccn(C(F)F)n3)[C@H](c3ccc(F)cc3Cl)N=C(c3nccs3)N2C1 [Example 57] | > 7.00 |
| C#CCNC[C@]1(O)CC2=C(c3ccn(C(F)F)n3)[C@H](c3ccc(F)cc3Cl)N=C(c3nccs3)N2C1 [Example 115] | < 6.40 |
| O=S(=O)(N[C@H]1CC2=C(c3ccn(C(F)F)n3)[C@H](c3ccc(F)cc3Cl)N=C(c3nccs3)N2C1)c1ccc(-c2ccccn2)s1 [Example 400] | > 7.00 |
| O=C(N[C@H]1CC2=C(c3ccn(C(F)F)n3)[C@H](c3ccc(F)cc3Cl)N=C(c3nccs3)N2C1)C1CCCC1 [Example 238] | 6.40 to 7.00 |
| CC1(S(=O)(=O)N[C@H]2CC3=C(c4ccn(C(F)F)n4)[C@H](c4ccc(F)cc4Cl)N=C(c4nccs4)N3C2)CC1 [Example 405] | > 7.00 |
| CCCNS(=O)(=O)N[C@H]1CC2=C(c3ccn(C(F)F)n3)[C@H](c3ccc(F)cc3Cl)N=C(c3nccs3)N2C1 [Example 77] | > 7.00 |

— US11472808B2, “Substituted pyrrolo[1,2-c]pyrimidines as hepatitis B antiviral agents” (Enanta Pharmaceuticals, Inc., priority 2019, dated 2022)
